Data reported in patent EP0238060B1, “Cephalosporin derivatives, processes for their preparation and antibacterial agents” (Banyu Pharmaceutical Co., Ltd., priority 1986, dated 1987).
Converted amounts (≈) assume the structure as drawn. Like-named read-outs stand apart in the source and are kept apart here.

What was measured:
Assay in all cases: In vitro antibacterial activity, agar plate dilution method (MIC)
Ps.maltophilia GN 12873 = type: cell-based, Pseudomonas maltophilia; details: Stenotrophomonas maltophilia, GN12873; Ps.maltophilia GN 12873 (β-Lactamase-producing strain); Mueller Hinton agar, inoculum 10⁶ CFU/ml, 37°C, 16 hours; read-out: Minimum Inhibitory Concentration (MIC: µg/ml)
Protocol: (§1) The in vitro antibacterial activities of the compounds of the present invention against various microorganisms, were measured by the following agar plate dilution method. One platinum loopfull of each test microorganism incubated overnight in Mueller Hinton broth, was inoculated to Mueller Hinton agar (inoculum size: l0⁶ CFU/ml). Such culture media containing various antibiotics in various concentrations were prepared. After incubation at 37°C for l6 hours, the minimum inhibitory concentrations (MIC: µg/ml) were measured. As comparative compounds, Cefotaxime, Ceftazidime and the compounds of Reference Examples l to 4 were employed.

Ps.cepacia 23 = type: cell-based, Pseudomonas cepacia; details: Burkholderia cepacia; Ps.cepacia 23; Mueller Hinton agar, inoculum 10⁶ CFU/ml, 37°C, 16 hours; read-out: Minimum Inhibitory Concentration (MIC: µg/ml)
Protocol: as §1

Ps.aeruginosa AK 109 = type: cell-based; details: Pseudomonas aeruginosa, AK109; Ps.aeruginosa AK 109; Mueller Hinton agar, inoculum 10⁶ CFU/ml, 37°C, 16 hours; read-out: Minimum Inhibitory Concentration (MIC: µg/ml)
Protocol: as §1

P.vulgaris No. 33 = type: cell-based; details: Proteus vulgaris, read-out: Minimum Inhibitory Concentration (MIC: µg/ml)
Protocol: as §1

S.marcescens IAM 1184 = type: cell-based; details: Serratia marcescens, IAM1184; S.marcescens IAM 1184; Mueller Hinton agar, inoculum 10⁶ CFU/ml, 37°C, 16 hours; read-out: Minimum Inhibitory Concentration (MIC: µg/ml)
Protocol: as §1

M.luteus ATCC9341 = type: cell-based; details: Micrococcus luteus; M.luteus ATCC9341; Mueller Hinton agar, inoculum 10⁶ CFU/ml, 37°C, 16 hours; read-out: Minimum Inhibitory Concentration (MIC: µg/ml)
Protocol: as §1

S.aureus 209P NIHJ-JC1 = type: cell-based; details: Staphylococcus aureus; S.aureus 209P NIHJ-JC1; Mueller Hinton agar, inoculum 10⁶ CFU/ml, 37°C, 16 hours; read-out: Minimum Inhibitory Concentration (MIC: µg/ml)
Protocol: as §1

K.oxytoca GN10650 = type: cell-based; details: Klebsiella oxytoca, read-out: Minimum Inhibitory Concentration (MIC: µg/ml)
Protocol: as §1

S.aureus BB5703 = type: cell-based; details: Staphylococcus aureus; S.aureus BB5703; Mueller Hinton agar, inoculum 10⁶ CFU/ml, 37°C, 16 hours; read-out: Minimum Inhibitory Concentration (MIC: µg/ml)
Protocol: as §1

C.freundii GN346 = type: cell-based; details: Citrobacter freundii; C.freundii GN346 (β-Lactamase-producing strain); Mueller Hinton agar, inoculum 10⁶ CFU/ml, 37°C, 16 hours; read-out: Minimum Inhibitory Concentration (MIC: µg/ml)
Protocol: as §1

S.marcescens No. 16-2 = type: cell-based; details: Serratia marcescens, NO.162; S.marcescens No. 16-2 (β-Lactamase-producing strain); Mueller Hinton agar, inoculum 10⁶ CFU/ml, 37°C, 16 hours; read-out: Minimum Inhibitory Concentration (MIC: µg/ml)
Protocol: as §1

E.coli GN5482 = type: cell-based; details: Escherichia coli; E.coli GN5482 (β-Lactamase-producing strain); Mueller Hinton agar, inoculum 10⁶ CFU/ml, 37°C, 16 hours; read-out: Minimum Inhibitory Concentration (MIC: µg/ml)
Protocol: as §1

Ps.aeruginosa AKR17 = type: cell-based; details: Pseudomonas aeruginosa; Ps.aeruginosa AKR17; Mueller Hinton agar, inoculum 10⁶ CFU/ml, 37°C, 16 hours; read-out: Minimum Inhibitory Concentration (MIC: µg/ml)
Protocol: as §1

S.epidermidis IAM12012 = type: cell-based; details: Staphylococcus epidermidis; S.epidermidis IAM12012; Mueller Hinton agar, inoculum 10⁶ CFU/ml, 37°C, 16 hours; read-out: Minimum Inhibitory Concentration (MIC: µg/ml)
Protocol: as §1

C.freundii GN346/16 = type: cell-based; details: Citrobacter freundii; C.freundii GN346/16; Mueller Hinton agar, inoculum 10⁶ CFU/ml, 37°C, 16 hours; read-out: Minimum Inhibitory Concentration (MIC: µg/ml)
Protocol: as §1

E.cloacae Nek 39 = type: cell-based; details: Enterobacter cloacae, NEK39; E.cloacae Nek 39 (β-Lactamase-producing strain); Mueller Hinton agar, inoculum 10⁶ CFU/ml, 37°C, 16 hours; read-out: Minimum Inhibitory Concentration (MIC: µg/ml)
Protocol: as §1

E.coli NIHJ JC2 = type: cell-based; details: Escherichia coli, NIHJJC2; E.coli NIHJ JC2; Mueller Hinton agar, inoculum 10⁶ CFU/ml, 37°C, 16 hours; read-out: Minimum Inhibitory Concentration (MIC: µg/ml)
Protocol: as §1

M.morganii GN5407 = type: cell-based; details: Morganella morganii; M.morganii GN5407 (β-Lactamase-producing strain); Mueller Hinton agar, inoculum 10⁶ CFU/ml, 37°C, 16 hours; read-out: Minimum Inhibitory Concentration (MIC: µg/ml)
Protocol: as §1

E.coli CSH(RE45) = type: cell-based; details: Escherichia coli, 16 h, read-out: Minimum Inhibitory Concentration (MIC: µg/ml)
Protocol: as §1

E.coli CSH2 (RK1) = type: cell-based; details: Escherichia coli, 16 h, read-out: Minimum Inhibitory Concentration (MIC: µg/ml)
Protocol: as §1

S.aureus JS1 = type: cell-based; details: Staphylococcus aureus; S.aureus JS1 (β-Lactamase-producing strain); Mueller Hinton agar, inoculum 10⁶ CFU/ml, 37°C, 16 hours; read-out: Minimum Inhibitory Concentration (MIC: µg/ml)
Protocol: as §1

A.calcoaceticus No. 4 = type: cell-based; details: Acinetobacter calcoaceticus; A.calcoaceticus No. 4; Mueller Hinton agar, inoculum 10⁶ CFU/ml, 37°C, 16 hours; read-out: Minimum Inhibitory Concentration (MIC: µg/ml)
Protocol: as §1

K.pneumoniae No. 42 = type: cell-based; details: Klebsiella pneumoniae; K.pneumoniae No. 42 (β-Lactamase-producing strain); Mueller Hinton agar, inoculum 10⁶ CFU/ml, 37°C, 16 hours; read-out: Minimum Inhibitory Concentration (MIC: µg/ml)
Protocol: as §1

K.pneumoniae PCI-602 = type: cell-based; details: Klebsiella pneumoniae, PCI602; K.pneumoniae PCI-602; Mueller Hinton agar, inoculum 10⁶ CFU/ml, 37°C, 16 hours; read-out: Minimum Inhibitory Concentration (MIC: µg/ml)
Protocol: as §1

Ps.aeruginosa IFO3445 = type: cell-based; details: Pseudomonas aeruginosa; Ps.aeruginosa IFO3445; Mueller Hinton agar, inoculum 10⁶ CFU/ml, 37°C, 16 hours; read-out: Minimum Inhibitory Concentration (MIC: µg/ml)
Protocol: as §1

E.cloacae 963 = type: cell-based; details: Enterobacter cloacae; E.cloacae 963; Mueller Hinton agar, inoculum 10⁶ CFU/ml, 37°C, 16 hours; read-out: Minimum Inhibitory Concentration (MIC: µg/ml)
Protocol: as §1

P.vulgaris HX-19 = type: cell-based; details: Proteus vulgaris, HX19; P.vulgaris HX-19; Mueller Hinton agar, inoculum 10⁶ CFU/ml, 37°C, 16 hours; read-out: Minimum Inhibitory Concentration (MIC: µg/ml)
Protocol: as §1

SMILES | MIC (Ps.maltophilia GN 12873) [µg/mL] | MIC (Ps.cepacia 23) [µg/mL] | MIC (Ps.aeruginosa AK 109) [µg/mL] | MIC (S.marcescens IAM 1184) [µg/mL] | MIC (M.luteus ATCC9341) [µg/mL] | MIC (S.aureus 209P NIHJ-JC1) [µg/mL] | MIC (S.aureus BB5703) [µg/mL] | MIC (C.freundii GN346) [µg/mL] | MIC (S.marcescens No. 16-2) [µg/mL] | MIC (E.coli GN5482) [µg/mL] | MIC (Ps.aeruginosa AKR17) [µg/mL] | MIC (S.epidermidis IAM12012) [µg/mL] | MIC (C.freundii GN346/16) [µg/mL] | MIC (E.cloacae Nek 39) [µg/mL] | MIC (E.coli NIHJ JC2) [µg/mL] | MIC (M.morganii GN5407) [µg/mL] | MIC (E.coli CSH(RE45)) [µg/mL] | MIC (E.coli CSH2 (RK1)) [µg/mL] | MIC (S.aureus JS1) [µg/mL] | MIC (A.calcoaceticus No. 4) [µg/mL] | also measured
Nc1nc(/C(=N/OC2(C(=O)O)CCCC2)C(=O)NC2C(=O)N3C(C(=O)[O-])=C(C[n+]4ccc5cc(O)c(O)cc5c4)CSC23)cs1 (stereo not drawn) [Ex. 5, 7-[2-(2-aminothiazol-4-yl)-2-(l-carboxy-l-cyclopentyloxyimino)acetamido]-3-(6,7-dihydroxy-2-isoquinolinio)methyl-3-cephem-4-carboxylate] | 1.56 (≈ 2.38 µM) | < 0.006 | 0.39 (≈ 0.596 µM) | < 0.006 | 3.12 (≈ 4.77 µM) | 25 (≈ 38.2 µM) | 50 (≈ 76.4 µM) | 50 (≈ 76.4 µM) | 0.1 (≈ 0.153 µM) | 0.2 (≈ 0.305 µM) | 0.39 (≈ 0.596 µM) | 6.25 (≈ 9.55 µM) | 1.56 (≈ 2.38 µM) | < 0.006 | 0.05 (≈ 0.0764 µM) | 0.1 (≈ 0.153 µM) | 0.78 (≈ 1.19 µM) | 0.0125 (≈ 0.0191 µM) | 100 (≈ 153 µM) | 0.1 (≈ 0.153 µM) | MIC (P.vulgaris No. 33; NO.33, 16 h): 0.0125 µg/mL (≈ 0.0191 µM); MIC (K.oxytoca GN10650; GN10650, 16 h): 0.0125 µg/mL (≈ 0.0191 µM); MIC (K.pneumoniae No. 42): 0.05 µg/mL (≈ 0.0764 µM); MIC (K.pneumoniae PCI-602): < 0.006 µg/mL; MIC (Ps.aeruginosa IFO3445): 0.39 µg/mL (≈ 0.596 µM); MIC (E.cloacae 963): 0.05 µg/mL (≈ 0.0764 µM); MIC (P.vulgaris HX-19): < 0.006 µg/mL
CC(C)ON=C(C(=O)NC1C(=O)N2C(C(=O)[O-])=C(C[n+]3ccc4cc(O)c(O)cc4c3)CS[C@H]12)c1csc(N)n1 (stereo partly drawn) [Ex. 2, 7-[2-(2-aminothiazol-4-yl)-2-isopropoxyiminoacetamido]-3-(6,7-dihydroxy-2-isoquinolinio)methyl-3-cephem-4-carboxylate] | 100 (≈ 171 µM) | 0.1 (≈ 0.171 µM) | 0.78 (≈ 1.33 µM) | 0.0125 (≈ 0.0214 µM) | 0.1 (≈ 0.171 µM) | 1.56 (≈ 2.67 µM) | 6.25 (≈ 10.7 µM) | 50 (≈ 85.5 µM) | 0.78 (≈ 1.33 µM) | 0.39 (≈ 0.667 µM) | 25 (≈ 42.8 µM) | 0.78 (≈ 1.33 µM) | 0.78 (≈ 1.33 µM) | 0.05 (≈ 0.0855 µM) | 0.1 (≈ 0.171 µM) | 0.05 (≈ 0.0855 µM) | 0.39 (≈ 0.667 µM) | < 0.006 | 12.5 (≈ 21.4 µM) | 0.2 (≈ 0.342 µM) | MIC (P.vulgaris No. 33; P.vulgaris No. 33 (β-Lactamase-producing strain), Mueller Hinton agar, inoculum 10⁶ CFU/ml, 37°C, 16 hours): 0.05 µg/mL (≈ 0.0855 µM); MIC (K.oxytoca GN10650; K.oxytoca GN10650 (β-Lactamase-producing strain), Mueller Hinton agar, inoculum 10⁶ CFU/ml, 37°C, 16 hours): 0.39 µg/mL (≈ 0.667 µM); MIC (K.pneumoniae No. 42): 0.025 µg/mL (≈ 0.0428 µM); MIC (K.pneumoniae PCI-602): < 0.006 µg/mL; MIC (Ps.aeruginosa IFO3445): 0.78 µg/mL (≈ 1.33 µM); MIC (E.cloacae 963): 0.025 µg/mL (≈ 0.0428 µM); MIC (P.vulgaris HX-19): < 0.006 µg/mL
